Test results taken from patent publication US11337964B2, “Isoindoline derivative, pharmaceutical composition and use thereof” (Kangpu Biopharmaceuticals, Ltd., priority 2017, dated 2022).

Experiments:
Type in all cases: biochemical
Settings in all cases: FAM-cAMP substrate, 30 minutes at room temperature
PDE4D3 = molecular target: T1, PDE4D3 (Homo sapiens, UniProt Q08499); experiment: PDE4 activity inhibition assay, PDE4D3
T1 construct: purchased BPS 60046
Experimental: (§1) The IC50 value of the inhibitory effect of the compound on PDE4A1A, PDE4B1 and PDE4D3 was tested.
(§2) Positive compound: Trequinsin (Sigma, Cat. No. T2057).
(§3) Equipment: Wallac Victor Multi-label counter (Perkin Elmer).
(§4) I. Preparing 1× reaction liquid and termination liquid;
(§5) II. PDE enzymatic reaction; • 1) The PDE was dissolved in 1× reaction solution to form 2× enzyme solution. • 2) FAM-cAMP was dissolved in 1× reaction solution to form 2× substrate solution. • 3) Echo 550 was used to transfer the corresponding volume of the compound in DMSO solution to the reaction plate. • 4) 2× enzyme solution was added into the corresponding well of the reaction plate and incubated with the compound solution at room temperature for 15 minutes. • 5) 2× substrate solution was added into the corresponding well of the reaction plate to initiate the reaction. • 6) Reaction plate was incubated at room temperature for 30 minutes and terminated by adding termination liquid, then incubated at room temperature for 60 minutes.
(§6) The inhibition rate was calculated by Excel; IC50 was calculated by GraphPad Prism.

PDE4B1 = molecular target: T2, PDE4B1 (Homo sapiens, UniProt Q07343); experiment: PDE4 activity inhibition assay, PDE4B1
T2 construct: purchased BPS 60041
Experimental: as §1, §2, §3, §4, §5, §6

PDE4A1A = molecular target: T3, PDE4A1A (Homo sapiens, UniProt P27815); experiment: PDE4 activity inhibition assay, PDE4A1A
T3 construct: purchased BPS 60040
Experimental: as §1, §2, §3, §4, §5, §6

T3 sequence (P27815 1-647 isoform P27815-4): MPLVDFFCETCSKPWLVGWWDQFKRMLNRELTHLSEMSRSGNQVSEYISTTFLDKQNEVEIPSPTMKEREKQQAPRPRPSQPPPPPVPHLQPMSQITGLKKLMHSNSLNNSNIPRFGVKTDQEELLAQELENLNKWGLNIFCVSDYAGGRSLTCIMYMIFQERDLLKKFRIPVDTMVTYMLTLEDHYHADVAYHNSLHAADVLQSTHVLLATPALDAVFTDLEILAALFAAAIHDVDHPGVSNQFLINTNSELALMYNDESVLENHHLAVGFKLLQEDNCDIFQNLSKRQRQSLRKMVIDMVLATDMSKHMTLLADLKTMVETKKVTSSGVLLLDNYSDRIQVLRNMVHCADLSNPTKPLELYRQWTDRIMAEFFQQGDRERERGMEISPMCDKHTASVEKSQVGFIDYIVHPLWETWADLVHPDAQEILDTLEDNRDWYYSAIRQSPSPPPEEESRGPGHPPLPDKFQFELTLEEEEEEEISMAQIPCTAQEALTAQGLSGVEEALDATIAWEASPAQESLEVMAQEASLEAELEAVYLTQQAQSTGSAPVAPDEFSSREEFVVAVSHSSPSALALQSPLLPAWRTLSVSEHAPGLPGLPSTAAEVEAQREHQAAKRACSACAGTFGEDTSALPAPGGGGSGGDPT
T1 sequence (Q08499 1-673 isoform Q08499-2): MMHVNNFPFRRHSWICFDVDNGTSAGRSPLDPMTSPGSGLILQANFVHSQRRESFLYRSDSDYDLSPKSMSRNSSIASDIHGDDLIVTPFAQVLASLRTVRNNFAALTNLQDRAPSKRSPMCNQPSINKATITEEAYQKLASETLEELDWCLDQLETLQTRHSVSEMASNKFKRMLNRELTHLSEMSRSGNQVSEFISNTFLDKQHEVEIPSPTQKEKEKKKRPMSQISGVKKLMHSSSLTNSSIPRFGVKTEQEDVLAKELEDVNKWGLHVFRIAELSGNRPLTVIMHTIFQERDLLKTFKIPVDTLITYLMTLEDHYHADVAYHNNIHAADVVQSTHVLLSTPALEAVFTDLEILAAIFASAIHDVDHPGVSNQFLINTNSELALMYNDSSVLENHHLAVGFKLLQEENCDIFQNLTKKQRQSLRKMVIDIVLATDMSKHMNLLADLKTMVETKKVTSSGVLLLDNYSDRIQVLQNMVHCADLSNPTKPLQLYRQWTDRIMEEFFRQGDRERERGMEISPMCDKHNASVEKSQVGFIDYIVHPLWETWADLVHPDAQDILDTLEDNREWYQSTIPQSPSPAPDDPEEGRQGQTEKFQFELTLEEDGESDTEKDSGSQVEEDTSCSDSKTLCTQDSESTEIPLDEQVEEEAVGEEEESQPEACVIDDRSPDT
T2 sequence (Q07343 whole entry): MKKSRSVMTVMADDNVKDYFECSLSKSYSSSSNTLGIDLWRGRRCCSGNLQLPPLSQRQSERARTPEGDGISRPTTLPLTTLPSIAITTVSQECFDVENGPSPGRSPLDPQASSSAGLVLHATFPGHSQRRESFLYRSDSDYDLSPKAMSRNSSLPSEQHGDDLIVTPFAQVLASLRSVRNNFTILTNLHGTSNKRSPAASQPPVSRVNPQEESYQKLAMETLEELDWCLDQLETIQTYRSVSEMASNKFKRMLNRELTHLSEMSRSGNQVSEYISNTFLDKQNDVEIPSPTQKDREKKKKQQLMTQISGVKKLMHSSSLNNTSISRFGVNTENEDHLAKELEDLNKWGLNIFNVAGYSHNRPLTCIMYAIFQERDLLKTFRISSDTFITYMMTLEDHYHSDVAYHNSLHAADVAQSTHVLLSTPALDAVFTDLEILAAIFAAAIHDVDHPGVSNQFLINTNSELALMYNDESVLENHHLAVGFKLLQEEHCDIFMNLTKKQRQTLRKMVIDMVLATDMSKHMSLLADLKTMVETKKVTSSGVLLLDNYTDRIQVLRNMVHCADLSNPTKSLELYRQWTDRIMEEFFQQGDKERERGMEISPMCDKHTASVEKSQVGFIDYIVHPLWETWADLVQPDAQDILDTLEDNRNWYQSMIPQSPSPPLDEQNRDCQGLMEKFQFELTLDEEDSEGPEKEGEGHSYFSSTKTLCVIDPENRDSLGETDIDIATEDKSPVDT

| IC50 (PDE4D3) [nM] | IC50 (PDE4B1) [nM] | IC50 (PDE4A1A) [nM] | Compound |
| --- | --- | --- | --- |
| 3.3 | 7.9 | 2.8 | CCOc1nc(C(CS(C)(=O)=O)N2C(=O)c3cccc(NC(=O)COC)c3C2=O)ccc1OC (stereo not drawn) [Compound 748, N-(2-(1-(6-ethoxy-5-methoxypyridin-2-yl)-2-(methylsulfonyl)ethyl)-1,3-dioxoisoindolin-4-yl)-2-methoxyacetamide] |
| 12 | 20 | 20 | [2H]C([2H])([2H])Oc1ccc([C@@H](CS(C)(=O)=O)N2C(=O)c3cc(F)cc(NC(C)=O)c3C2=O)cc1OC([2H])([2H])C([2H])([2H])[2H] [Compound 207, (S)—N-(2-(1-(3-d5-ethoxy-4-d3-methoxyphenyl)-2-(methylsulfonyl)ethyl)-6-fluoro-1,3-dioxoisoindolin-4-yl)acetamide] |
| 1 | 2.2 | 1.3 | [2H]C([2H])([2H])Oc1ccc([C@@H](CS(C)(=O)=O)N2C(=O)c3c(F)ccc(NC(=O)C4CC4)c3C2=O)nc1OCC [Compound 767, (S)—N-(2-(1-(6-ethoxy-5-d3-methoxypyridin-2-yl)-2-(methylsulfonyl)ethyl)-7-fluoro-1,3-dioxoisoindolin-4-yl)cyclopropanecarboxamide] |
| 20 | 55 | 30 | CCOc1nc([C@H](CS(C)(=O)=O)N2C(=O)c3cccc(NC(C)=O)c3C2=O)ccc1OC [Compound 703, (R)—N-(2-(1-(6-ethoxy-5-methoxypyridin-2-yl)-2-(methylsulfonyl)ethyl)-1,3-dioxoisoindolin-4-yl)acetamide] |
| 4.9 | 11 | 7.6 | [2H]C([2H])([2H])Oc1ccc([C@@H](CS(C)(=O)=O)N2C(=O)c3cccc(NC(=O)C4CC4)c3C2=O)cc1OCC [Compound 120, (S)—N-(2-(1-(3-ethoxy-4-d3-methoxyphenyl)-2-(methylsulfonyl)ethyl)-1,3-dioxoisoindolin-4-yl)cyclopropanecarboxamide] |
| 201 | 390 | 273 | CCOc1cc(C(CS(C)(=O)=O)N2C(=O)c3nccc(NC(C)=O)c3C2=O)ccc1OC (stereo not drawn) [Compound 601, N-(6-(1-(3-ethoxy-4-methoxyphenyl)-2-(methylsulfonyl)ethyl)-5,7-dioxo-6,7-dihydro-5H-pyrrolo[3,4-b]pyridin-4-yl)acetamide] |
| 11 | 32 | 17 | CCOc1nc([C@H](CS(C)(=O)=O)N2C(=O)c3cc(F)cc(NC(C)=O)c3C2=O)ccc1OC [Compound 709, (R)—N-(2-(1-(6-ethoxy-5-methoxypyridin-2-yl)-2-(methylsulfonyl)ethyl)-6-fluoro-1,3-dioxoisoindolin-4-yl)acetamide] |
| 41 | 97 | 61 | [2H]C([2H])([2H])Oc1ccc([C@@H](CS(C)(=O)=O)N2C(=O)c3c(F)ccc(NC(C)=O)c3C2=O)cc1OC([2H])([2H])[2H] [Compound 105, (S)—N-(2-(1-(3,4-d6-dimethoxyphenyl)-2-(methylsulfonyl)ethyl)-7-fluoro-1,3-dioxoisoindolin-4-yl)acetamide] |
| 5.7 | 17.3 | 6 | CCOc1cc([C@@H](CS(C)(=O)=O)N2C(=O)c3c(C#N)ccc(NC(C)=O)c3C2=O)ccc1OC [Compound 115, (S)—N-(7-cyano-2-(l 1-(3-ethoxy-4-methoxyphenyl)-2-(methylsulfonyl)ethyl)-1,3-dioxoisoindolin-4-yl)acetamide] |
| 83 | 157 | 133 | [2H]C([2H])([2H])Oc1ccc([C@H](CS(C)(=O)=O)N2C(=O)c3cc(F)cc(NC(C)=O)c3C2=O)cc1OCC [Compound 204, (R)—N-(2-(1-(3-ethoxy-4-d3-methoxyphenyl)-2-(methylsulfonyl)ethyl)-6-fluoro-1,3-dioxoisoindolin-4-yl)acetamide] |
| 29 | 82.8 | 32.6 | [2H]C([2H])([2H])Oc1ccc([C@H](CS(C)(=O)=O)N2C(=O)c3cccc(NC(C)=O)c3C2=O)nc1OCC [Compound 712, (R)—N-(2-(1-(6-ethoxy-5-d3-methoxypyridin-2-yl)-2-(methylsulfonyl)ethyl)-1,3-dioxoisoindolin-4-yl)acetamide] |
| 0.4 | 1.6 | 0.6 | CCOc1nc(C(CS(C)(=O)=O)N2C(=O)c3c(Cl)ccc(NC(C)=O)c3C2=O)ccc1OC (stereo not drawn) [Compound 728, N-(7-chloro-2-(1-(6-ethoxy-5-methoxypyridin-2-yl)-2-(methylsulfonyl)ethyl)-1,3-dioxoisoindolin-4-yl)acetamide] |
| 65 | 116 | 102 | CCOc1cc(C(CS(C)(=O)=O)N2C(=O)c3ccc(F)c(NC(C)=O)c3C2=O)ccc1OC (stereo not drawn) [Compound 301, N-(2-(1-(3-ethoxy-4-methoxyphenyl)-2-(methylsulfonyl)ethyl)-5-fluoro-1,3-dioxoisoindolin-4-yl)acetamide] |
| 4 | 18 | 6.5 | CCOc1nc([C@H](CS(C)(=O)=O)N2C(=O)c3c(F)ccc(NC(C)=O)c3C2=O)ccc1OC [Compound 706, (R)—N-(2-(1-(6-ethoxy-5-methoxypyridin-2-yl)-2-(methylsulfonyl)ethyl)-7-fluoro-1,3-dioxoisoindolin-4-yl)acetamide] |
| 1.3 | 4.7 | 3.1 | CCOc1nc(C(CS(C)(=O)=O)N2C(=O)c3cccc(NC(=O)CC(C)C)c3C2=O)ccc1OC (stereo not drawn) [Compound 760, N-(2-(1-(6-ethoxy-5-methoxypyridin-2-yl)-2-(methylsulfonyl)ethyl)-1,3-dioxoisoindolin-4-yl)-3-methylbutanamide] |
| 1.1 | 2.4 | 0.8 | CCOc1nc([C@@H](CS(C)(=O)=O)N2C(=O)c3c(C#N)ccc(NC(C)=O)c3C2=O)ccc1OC [Compound 732, (S)—N-(7-cyano-2-(1-(6-ethoxy-5-methoxypyridin-2-yl)-2-(methylsulfonyl)ethyl)-1,3-dioxoisoindolin-4-yl)acetamide] |
| 15.4 | 57.8 | 15.3 | [2H]C([2H])([2H])Oc1ccc([C@H](CS(C)(=O)=O)N2C(=O)c3c(F)ccc(NC(C)=O)c3C2=O)nc1OCC [Compound 719, (R)—N-(2-(1-(6-ethoxy-5-d3-methoxypyridin-2-yl)-2-(methylsulfonyl)ethyl)-7-fluoro-1,3-dioxoisoindolin-4-yl)acetamide] |
| 110 | 211 | 182 | CCOc1cc(C(CS(C)(=O)=O)N2C(=O)c3ccnc(NC(C)=O)c3C2=O)ccc1OC (stereo not drawn) [Compound 401, N-(2-(1-(3-ethoxy-4-methoxyphenyl)-2-(methylsulfonyl)ethyl)-1,3-dioxo-2,3-dihydro-1H-pyrrolo[3,4-c]pyridin-4-yl)acetamide] |
| 0.7 | 3 | 0.9 | [2H]C([2H])([2H])Oc1ccc([C@@H](CS(C)(=O)=O)N2C(=O)c3c(F)ccc(NC(C)=O)c3C2=O)nc1OCC [Compound 718, (S)—N-(2-(1-(6-ethoxy-5-d3-methoxypyridin-2-yl)-2-(methylsulfonyl)ethyl)-7-fluoro-1,3-dioxoisoindolin-4-yl)acetamide] |
| 25 | 41 | 39 | CCOc1cc(C(CS(C)(=O)=O)N2C(=O)c3cc(F)cc(NC(C)=O)c3C2=O)ccc1OC (stereo not drawn) [Compound 201, N-(2-(1-(3-ethoxy-4-methoxyphenyl)-2-(methylsulfonyl)ethyl)-6-fluoro-1,3-dioxoisoindolin-4-yl)acetamide] |
| 1.2 | 1.7 | 1.7 | [2H]C([2H])([2H])Oc1ccc([C@@H](CS(C)(=O)=O)N2C(=O)c3cccc(NC(=O)C4CC4)c3C2=O)nc1OCC [Compound 773, (S)—N-(2-(1-(6-ethoxy-5-d3-methoxypyridin-2-yl)-2-(methylsulfonyl)ethyl)-1,3-dioxoisoindolin-4-yl)cyclopropanecarboxamide] |
| 79 | 165 | 123 | [2H]C([2H])([2H])Oc1ccc([C@@H](CS(C)(=O)=O)N2C(=O)c3cc(F)cc(NC(C)=O)c3C2=O)cc1OC([2H])([2H])[2H] [Compound 205, (S)—N-(2-(1-(3,4-d6-dimethoxyphenyl)-2-(methylsulfonyl)ethyl)-6-fluoro-1,3-dioxoisoindolin-4-yl)acetamide] |
| 5.4 | 11 | 11 | CCOc1cc([C@@H](CS(C)(=O)=O)N2C(=O)c3cc(F)cc(NC(C)=O)c3C2=O)ccc1OC [Compound 202, (S)—N-(2-(1-(3-ethoxy-4-methoxyphenyl)-2-(methylsulfonyl)ethyl)-6-fluoro-1,3-dioxoisoindolin-4-yl)acetamide] |
| 2.5 | 8.7 | 5.1 | [2H]C([2H])([2H])Oc1ccc([C@@H](CS(C)(=O)=O)N2C(=O)c3c(F)ccc(NC(=O)C4CC4)c3C2=O)cc1OCC [Compound 118, (S)—N-(2-(1-(3-ethoxy-4-d3-methoxyphenyl)-2-(methylsulfonyl)ethyl)-7-fluoro-1,3-dioxoisoindolin-4-yl)cyclopropanecarboxamide] |
